The values that follow come from PubChem BioAssay (NCI).

Among the test systems are HOP-92 NSCLC; A549 NSCLC; OVCAR-4 ovarian; SK-MEL-5 melanoma; RPMI-8226 leukemia; CAKI-1 renal; SK-OV-3 ovarian; PC-3 prostate; COLO 205 colon; HCC-2998 colon.
Holding throughout (assay): inhibition of tumour cell growth, NCI panel, 48 h

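Interpolation was linear, between the two tested concentrations surrounding the appropriate level; five concentrations were tested over 48 hours in 96-well plates. Here, GI50 denotes the concentration required for 50% inhibition of growth. TGI: total growth inhibition.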

For the compound `O=C(O)CSCc1cccc2ccccc12`, the TGI in the test with HOP-92 NSCLC, with A549 NSCLC, with OVCAR-4 ovarian, with SK-MEL-5 melanoma, in the test with RPMI-8226 leukemia and in the test with CAKI-1 renal was > 100 µM in each case. Moreover, the TGI in the test on SK-OV-3 ovarian, in the test on PC-3 prostate and with COLO 205 colon was > 100 µM in each case.
For the compound `O=P([O-])(O)OP(=O)([O-])O.[NH-][C@H]1CCCC[C@@H]1[NH-].[OH-].[OH-].[Pt+4]`, the GI50 in the test on HOP-92 NSCLC was 22 µM; in the test on HCC-2998 colon, 28.8 µM; in the test on OVCAR-4 ovarian it was 71.2 µM; with SK-MEL-5 melanoma, 42.3 µM; in the test on RPMI-8226 leukemia it was > 100 µM; in the test on CAKI-1 renal it was 34.4 µM. In addition, the GI50 with SK-OV-3 ovarian is 19.9 µM; in the test with PC-3 prostate it was 25.2 µM; in the test on COLO 205 colon, 88.2 µM. In addition, the TGI is 60.1 µM in the test on HOP-92 NSCLC; 85.2 µM in the test on HCC-2998 colon; > 100 µM in the test on OVCAR-4 ovarian; > 100 µM in the test with SK-MEL-5 melanoma; > 100 µM with RPMI-8226 leukemia; > 100 µM with CAKI-1 renal. In addition, the TGI in the test on SK-OV-3 ovarian was 38.6 µM; in the test on PC-3 prostate it was 68.2 µM; in the test on COLO 205 colon, > 100 µM.
Turning to `COc1cc(/C(Cl)=C/C=C/C(=O)c2c(C)[n+]([O-])c3ccc(Cl)cc3[n+]2[O-])cc(OC)c1OC`, the GI50 in the test on HOP-92 NSCLC was 4.7 µM; in the test on HCC-2998 colon it was 16.7 µM; with OVCAR-4 ovarian it was 5.07 µM; in the test on SK-MEL-5 melanoma, 9.44 µM; in the test with RPMI-8226 leukemia, 2.18 µM; in the test with CAKI-1 renal, 1.66 µM. Further, the GI50 with SK-OV-3 ovarian was 7.4 µM; with PC-3 prostate it was 3.58 µM; with COLO 205 colon, 10 µM. Moreover, the TGI is 28.1 µM in the test on HOP-92 NSCLC; > 50 µM in the test on HCC-2998 colon; > 50 µM in the test on OVCAR-4 ovarian; > 50 µM in the test on SK-MEL-5 melanoma; > 50 µM in the test on RPMI-8226 leukemia; 10.6 µM with CAKI-1 renal. Besides, the TGI in the test on SK-OV-3 ovarian was 31.5 µM; with PC-3 prostate, > 50 µM; in the test on COLO 205 colon, 28.2 µM.
Take `O=C(Nc1ccc(Cl)cc1Cl)c1ccc(NC2=C(Cl)C(=O)N(Cc3ccccc3)C2=O)cc1`: the GI50 in the test with HOP-92 NSCLC is 13.1 µM; in the test on A549 NSCLC it was 25.9 µM; in the test on SK-MEL-5 melanoma, 20.6 µM; with RPMI-8226 leukemia, 2.84 µM; with CAKI-1 renal, 26.4 µM; in the test with SK-OV-3 ovarian, 30.3 µM. Also, the GI50 in the test on PC-3 prostate was 13.4 µM; with COLO 205 colon, 16.3 µM. Besides, the TGI with HOP-92 NSCLC stood at 26.7 µM; in the test on A549 NSCLC, 66.1 µM; in the test on SK-MEL-5 melanoma, 65.8 µM; in the test with RPMI-8226 leukemia, 9.04 µM; in the test on CAKI-1 renal, 63.5 µM; with SK-OV-3 ovarian it was 78.8 µM. In addition, the TGI in the test on PC-3 prostate stood at 26.2 µM; in the test with COLO 205 colon, 38.8 µM.
In the case of `Cc1ccc(NCCCN2CCN(CCCNc3ccc(C)c4sc5ccccc5c(=O)c34)CC2)c2c(=O)c3ccccc3sc12`, the TGI in the test with HCC-2998 colon, with A549 NSCLC, with OVCAR-4 ovarian, in the test with SK-MEL-5 melanoma, in the test with RPMI-8226 leukemia and in the test on CAKI-1 renal was > 100 µM in each case. For the same compound, the TGI with SK-OV-3 ovarian, in the test on PC-3 prostate and with COLO 205 colon was > 100 µM throughout.
`NS(=O)(=O)c1ccc(NC(=O)c2ccc(NC3=C(Cl)C(=O)N(Cc4ccccc4)C3=O)cc2)cc1`: the GI50 with HOP-92 NSCLC is 10.9 µM; with A549 NSCLC it was 29.1 µM; with OVCAR-4 ovarian, 13.7 µM; with SK-MEL-5 melanoma, 10.9 µM; in the test on CAKI-1 renal it was 14.8 µM; with SK-OV-3 ovarian it was 41 µM. In addition, the GI50 is 12.8 µM with PC-3 prostate and 15.1 µM in the test on COLO 205 colon. Moreover, the TGI was 31.3 µM in the test on HOP-92 NSCLC; > 100 µM in the test with A549 NSCLC; > 100 µM with OVCAR-4 ovarian; 24.1 µM in the test on SK-MEL-5 melanoma; 29.3 µM with CAKI-1 renal; > 100 µM in the test on SK-OV-3 ovarian. Besides, the TGI in the test with PC-3 prostate was 34 µM; in the test with COLO 205 colon, > 100 µM.
For `Cc1ccc(C(=O)O/N=C2/CCCC/C2=C\c2ccccc2)cc1`, the TGI in the test with HOP-92 NSCLC was > 100 µM; in the test with HCC-2998 colon, > 100 µM; in the test with A549 NSCLC, 39.3 µM; in the test on OVCAR-4 ovarian it was > 100 µM; in the test with SK-MEL-5 melanoma, > 100 µM; in the test on RPMI-8226 leukemia, > 100 µM. In addition, the TGI with CAKI-1 renal, with SK-OV-3 ovarian and in the test on COLO 205 colon was > 100 µM in each case.
Turning to `CC(C)(C)OC(=O)NCCNC1=CC(=O)c2nc3ccccc3c3ccnc1c23`, the GI50 is 17.9 µM in the test on HOP-92 NSCLC; 18.4 µM with A549 NSCLC; 24.3 µM in the test on OVCAR-4 ovarian; 11.1 µM in the test with SK-MEL-5 melanoma; 28.4 µM in the test with CAKI-1 renal; 43.3 µM with SK-OV-3 ovarian. Further, the values for the GI50 with PC-3 prostate and in the test on COLO 205 colon were 15.1 µM and 12.7 µM, respectively. For the same compound, the TGI was 42.5 µM in the test on HOP-92 NSCLC; > 100 µM in the test on A549 NSCLC; 67.6 µM in the test with OVCAR-4 ovarian; 23.1 µM with SK-MEL-5 melanoma; 72.3 µM in the test on CAKI-1 renal; > 100 µM with SK-OV-3 ovarian. For the same compound, the TGI in the test on PC-3 prostate was found to be 49.2 µM; in the test with COLO 205 colon, 34.7 µM.
With `CC1=NN(C(=O)c2ccccc2O)C(=O)/C1=C/c1ccc([N+](=O)[O-])cc1`, the GI50 was 0.609 µM in the test with HOP-92 NSCLC; 0.357 µM in the test on A549 NSCLC; 0.783 µM in the test on OVCAR-4 ovarian; 2.21 µM in the test on SK-MEL-5 melanoma; 0.784 µM in the test with RPMI-8226 leukemia; 0.549 µM in the test on CAKI-1 renal. Besides, the GI50 with SK-OV-3 ovarian was 1.6 µM; with PC-3 prostate, 0.371 µM; with COLO 205 colon, 7.43 µM. Also, the TGI with HOP-92 NSCLC is > 100 µM; in the test with A549 NSCLC, > 100 µM; in the test with OVCAR-4 ovarian it was > 100 µM; with SK-MEL-5 melanoma, 51.5 µM; in the test with RPMI-8226 leukemia it was > 100 µM; in the test on CAKI-1 renal it was > 30.8 µM. Besides, the TGI was > 100 µM with SK-OV-3 ovarian, > 100 µM in the test with PC-3 prostate and > 88 µM in the test on COLO 205 colon.
